Drawing on ChEMBL document CHEMBL1142009, “Efficient synthesis of bicyclic oxazolino- and thiazolino[3,2-c]pyrimidine-5,7-diones and its application to the synthesis of GnRH antagonists” (Bioorg Med Chem Lett, 2005), this text covers Ki for ten molecules.

The term Ki denotes the equilibrium dissociation constant of an inhibitor or competing ligand from its target. A lower Ki goes with higher affinity.

SMILES strings stand for the structures.

The target in the test is T1, Gonadotropin-releasing hormone receptor (Homo sapiens, UniProt P30968).
T1 sequence (P30968 whole entry): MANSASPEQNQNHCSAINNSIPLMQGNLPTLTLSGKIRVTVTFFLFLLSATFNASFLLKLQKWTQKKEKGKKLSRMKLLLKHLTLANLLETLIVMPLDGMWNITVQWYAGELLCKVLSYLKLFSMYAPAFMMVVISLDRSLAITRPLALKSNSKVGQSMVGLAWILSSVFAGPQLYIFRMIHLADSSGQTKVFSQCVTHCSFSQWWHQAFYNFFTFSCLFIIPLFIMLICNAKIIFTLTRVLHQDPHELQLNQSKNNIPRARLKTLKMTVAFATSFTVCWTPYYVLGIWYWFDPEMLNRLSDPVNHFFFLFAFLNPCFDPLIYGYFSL
Put plainly: Binding affinity was determined against human gonadotropin-releasing hormone receptor.

`COc1cccc(-c2c3n(c(=O)n(CCNCc4ccccc4)c2=O)[C@@H](c2ccccc2)CO3)c1F` showed a Ki of 460 nM.
Consider `N[C@@H](Cn1c(=O)c(-c2ccccc2F)c2n(c1=O)C(c1ccccc1)CS2)c1ccccc1` (stereo not given in full), for which the Ki is 110 nM. Compared with the last molecule, the Ki is about 4.2-fold lower.
For `COc1cccc(-c2c3n(c(=O)n(CC(N)c4ccccc4)c2=O)C(c2ccccc2)CO3)c1` (stereo not given) the value was 870 nM.
Regarding `NC(Cn1c(=O)c(-c2ccccc2Cl)c2n(c1=O)C(c1ccccc1F)CS2)c1ccccc1` (stereo not given), the affinity, expressed as Ki, was 93 nM. This Ki is about 9.4-fold lower than that of the molecule before.
In the case of `COc1cccc(-c2c3n(c(=O)n(CC(N)c4ccccc4)c2=O)C(c2ccccc2F)CS3)c1Cl` (stereo not given), the Ki is 4.5 nM.
For `NC(Cn1c(=O)c(-c2ccccc2F)c2n(c1=O)C(c1ccccc1)CO2)c1ccccc1` (stereo not given) the value was 700 nM.
For `NC(Cn1c(=O)c(-c2ccccc2F)c2n(c1=O)C(c1ccccc1F)CO2)c1ccccc1` (stereo not given) the value was 230 nM; for `COc1cccc(-c2c3n(c(=O)n(CC(N)c4ccccc4)c2=O)C(c2ccccc2F)CS3)c1F` (stereo not given), 40 nM.
For `NC(Cn1c(=O)c(-c2ccccc2F)c2n(c1=O)C(c1ccccc1F)CS2)c1ccccc1` (stereo not given) the value was 220 nM; for `COc1cccc(-c2c3n(c(=O)n(CC(N)c4ccccc4)c2=O)C(c2ccccc2)CO3)c1F` (stereo not given), 125 nM.
